Measured values published in ChEMBL document CHEMBL1136219, “Synthesis and SAR evaluation of oxadiazolopyrazines as selective Haemophilus influenzae antibacterial agents” (2003).
Values after ≈ are worked out from the molar mass of the structure shown.

How the values were obtained:
Format in all cases: functional
JIYOYE = experiment: Cytotoxicity against human Jijoye B cell
Candida albicans = experiment: Minimum inhibitory concentration against Candida albicans
Streptococcus pneumoniae = experiment: Minimum inhibitory concentration against Streptococcus pneumoniae
Haemophilus influenzae = experiment: Minimum inhibitory concentration against Haemophilus influenzae
Staphylococcus aureus = experiment: Minimum inhibitory concentration against Staphylococcus aureus
Escherichia coli = experiment: Minimum inhibitory concentration against Escherichia coli

Row | SMILES | Cytotoxicity (JIYOYE) | MIC (Candida albicans) | MIC (Streptococcus pneumoniae) | MIC (Haemophilus influenzae) | MIC (Staphylococcus aureus) | MIC (Escherichia coli)
1 | COc1ccc(-c2nc3nonc3nc2O)cc1 | >100 µg/mL | > 128 µg/mL | 128 µg/mL (≈ 524 µM) | 4 µg/mL (≈ 16.4 µM) | 64 µg/mL (≈ 262 µM) | > 128 µg/mL
2 | Oc1nc2nonc2nc1-c1ccc(N2CCOCC2)cc1 | >100 µg/mL | > 128 µg/mL | 64 µg/mL (≈ 214 µM) | 32 µg/mL (≈ 107 µM) | > 128 µg/mL | > 128 µg/mL
3 | Oc1nc2nonc2nc1-c1ccc(Br)cc1 | >100 µg/mL | > 128 µg/mL | 64 µg/mL (≈ 218 µM) | 1 µg/mL (≈ 3.41 µM) | 16 µg/mL (≈ 54.6 µM) | > 128 µg/mL
4 | Oc1nc2nonc2nc1-c1ccccc1Cl | >100 µg/mL | > 128 µg/mL | 128 µg/mL (≈ 515 µM) | 128 µg/mL (≈ 515 µM) | > 128 µg/mL | > 128 µg/mL
5 | Oc1nc2nonc2nc1-c1ccc[nH]1 | >100 µg/mL | 128 µg/mL (≈ 630 µM) | 128 µg/mL (≈ 630 µM) | 4 µg/mL (≈ 19.7 µM) | 128 µg/mL (≈ 630 µM) | > 128 µg/mL
6 | CN(C)c1ccc(-c2nc3nonc3nc2O)cc1 | >100 µg/mL | > 128 µg/mL | 128 µg/mL (≈ 498 µM) | 4 µg/mL (≈ 15.5 µM) | > 128 µg/mL | > 128 µg/mL
7 | O=[N+]([O-])c1ccc(-c2nc3nonc3nc2O)cc1 | >100 µg/mL | > 128 µg/mL | 128 µg/mL (≈ 494 µM) | 8 µg/mL (≈ 30.9 µM) | > 128 µg/mL | > 128 µg/mL
8 | Oc1nc2nonc2nc1-c1ccc(N2CCCCC2)cc1 | >100 µg/mL | > 128 µg/mL | 128 µg/mL (≈ 431 µM) | 64 µg/mL (≈ 215 µM) | 64 µg/mL (≈ 215 µM) | > 128 µg/mL
9 | Oc1nc2nonc2nc1-c1ccc(Oc2ccccc2)cc1 | 60 µg/mL | > 128 µg/mL | 64 µg/mL (≈ 209 µM) | 8 µg/mL (≈ 26.1 µM) | 4 µg/mL (≈ 13.1 µM) | > 128 µg/mL
10 | Oc1nc2nonc2nc1-c1c[nH]c2ccccc12 | >100 µg/mL | > 128 µg/mL | 64 µg/mL (≈ 253 µM) | 8 µg/mL (≈ 31.6 µM) | > 128 µg/mL | > 128 µg/mL
11 | Oc1nc2nonc2nc1-c1cccc(F)c1 | >100 µg/mL | > 128 µg/mL | 64 µg/mL (≈ 276 µM) | 1 µg/mL (≈ 4.31 µM) | 64 µg/mL (≈ 276 µM) | 128 µg/mL (≈ 551 µM)
12 | Oc1nc2nonc2nc1-c1cccc(Cl)c1 | >100 µg/mL | > 128 µg/mL | 64 µg/mL (≈ 257 µM) | 1 µg/mL (≈ 4.02 µM) | 128 µg/mL (≈ 515 µM) | > 128 µg/mL
13 | O=[N+]([O-])c1cccc(-c2nc3nonc3nc2O)c1 | >100 µg/mL | > 128 µg/mL | 64 µg/mL (≈ 247 µM) | 1 µg/mL (≈ 3.86 µM) | 32 µg/mL (≈ 123 µM) | > 128 µg/mL
14 | Oc1nc2nonc2nc1-c1ccccc1 | >100 µg/mL | > 128 µg/mL | 128 µg/mL (≈ 598 µM) | 1 µg/mL (≈ 4.67 µM) | 128 µg/mL (≈ 598 µM) | 128 µg/mL (≈ 598 µM)
15 | Oc1nc2nonc2nc1-c1ccsc1 | 100 µg/mL | > 128 µg/mL | 128 µg/mL (≈ 581 µM) | 1 µg/mL (≈ 4.54 µM) | 64 µg/mL (≈ 291 µM) | 128 µg/mL (≈ 581 µM)
16 | Oc1nc2nonc2nc1-c1ccc(C(F)(F)F)cc1 | >100 µg/mL | > 128 µg/mL | 64 µg/mL (≈ 227 µM) | 4 µg/mL (≈ 14.2 µM) | 32 µg/mL (≈ 113 µM) | > 128 µg/mL
17 | Cn1cccc1-c1nc2nonc2nc1O | >100 µg/mL | > 128 µg/mL | 64 µg/mL (≈ 295 µM) | 8 µg/mL (≈ 36.8 µM) | > 128 µg/mL | > 128 µg/mL
18 | Oc1nc2nonc2nc1-c1ccccc1F | >100 µg/mL | > 128 µg/mL | 64 µg/mL (≈ 276 µM) | 8 µg/mL (≈ 34.5 µM) | > 128 µg/mL | > 128 µg/mL
19 | Oc1nc2nonc2nc1-c1ccc(Cl)cc1 | >100 µg/mL | > 128 µg/mL | 128 µg/mL (≈ 515 µM) | 1 µg/mL (≈ 4.02 µM) | 16 µg/mL (≈ 64.4 µM) | > 128 µg/mL
20 | Oc1nc2nonc2nc1-c1ccc2c(c1)OCO2 | >100 µg/mL | > 128 µg/mL | 128 µg/mL (≈ 496 µM) | 2 µg/mL (≈ 7.75 µM) | 64 µg/mL (≈ 248 µM) | > 128 µg/mL
21 | Oc1nc2nonc2nc1-c1ccc(C2CCCCC2)cc1 | 60 µg/mL | > 128 µg/mL | 64 µg/mL (≈ 216 µM) | 16 µg/mL (≈ 54 µM) | 4 µg/mL (≈ 13.5 µM) | > 128 µg/mL
22 | Oc1nc2nonc2nc1-c1cccc(C(F)(F)F)c1 | >100 µg/mL | > 128 µg/mL | 128 µg/mL (≈ 454 µM) | 2 µg/mL (≈ 7.09 µM) | 32 µg/mL (≈ 113 µM) | > 128 µg/mL
23 | COc1cccc(-c2nc3nonc3nc2O)c1 | >100 µg/mL | > 128 µg/mL | 64 µg/mL (≈ 262 µM) | 8 µg/mL (≈ 32.8 µM) | 128 µg/mL (≈ 524 µM) | > 128 µg/mL
24 | COc1cc(-c2nc3nonc3nc2O)cc(OC)c1OC | >100 µg/mL | > 128 µg/mL | 128 µg/mL (≈ 421 µM) | 128 µg/mL (≈ 421 µM) | > 128 µg/mL | > 128 µg/mL
25 | Oc1nc2nonc2nc1-c1cccs1 | >100 µg/mL | > 128 µg/mL | 64 µg/mL (≈ 291 µM) | 0.5 µg/mL (≈ 2.27 µM) | 32 µg/mL (≈ 145 µM) | 128 µg/mL (≈ 581 µM)
26 | Oc1nc2nonc2nc1-c1cccc(Br)c1 | >100 µg/mL | > 128 µg/mL | 64 µg/mL (≈ 218 µM) | 0.5 µg/mL (≈ 1.71 µM) | 32 µg/mL (≈ 109 µM) | > 128 µg/mL
27 | Oc1nc2nonc2nc1-c1ccccc1Br | >100 µg/mL | > 128 µg/mL | 128 µg/mL (≈ 437 µM) | 128 µg/mL (≈ 437 µM) | > 128 µg/mL | > 128 µg/mL
28 | Oc1nc2nonc2nc1-c1ccc(F)cc1 | >100 µg/mL | > 128 µg/mL | 64 µg/mL (≈ 276 µM) | 1 µg/mL (≈ 4.31 µM) | 64 µg/mL (≈ 276 µM) | > 128 µg/mL
